# Test results taken from patent US20070037823A1, “Substituted piperidine and piperazine derivatives as melanocortin-4 receptor modulators” (priority 2003, published 2007).
# Tests used:
# hMC4-R [1] = molecular target: T1, hMC4-R (Homo sapiens, UniProt P32245); experiment: Functional cellular cAMP assay in HEK293 cells (fluorescence polarization); format: cell-based; conditions: for EC50: HEK293 cells, cAMP production; for % activation functional assay: cAMP compared to stimulation with NDP-alpha-MSH
# T1 construct: expressed in transfected cells; host or cells: HEK293 cells
# T1 sequence (P32245 whole entry): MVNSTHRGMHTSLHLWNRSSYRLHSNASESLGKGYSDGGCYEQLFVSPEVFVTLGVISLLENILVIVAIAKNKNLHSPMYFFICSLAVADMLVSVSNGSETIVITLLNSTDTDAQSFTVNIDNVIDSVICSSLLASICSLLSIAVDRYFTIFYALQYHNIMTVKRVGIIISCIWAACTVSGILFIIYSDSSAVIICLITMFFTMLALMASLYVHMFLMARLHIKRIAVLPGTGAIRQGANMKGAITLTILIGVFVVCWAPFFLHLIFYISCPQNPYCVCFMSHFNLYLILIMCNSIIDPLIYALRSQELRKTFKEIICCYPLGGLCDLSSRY
# Experimental: A functional cellular assay, based on competition between unlabeled cAMP and a fixed quantity of fluorescence labeled cAMP for a limited number of binding sites on a cAMP specific antibody, is used to discriminate melanocortin receptor agonists from antagonists by fluorescence polarization.
# HEK293 cells expressing one of the human melanocortin receptors are transferred to 384 well microtiter plates, an appropriate amount of cAMP antibody is added, followed by the addition of different concentrations of the test compound to effect cAMP production. Cells are lysed and a fluorescence labeled cAMP conjugate is dispensed. The plate is read on a fluorescence polarization microplate reader and the amount of cAMP produced as a response to a test compound is compared to the production of CAMP resulting from stimulation with NDP-alpha-MSH. […]
# hMC4-R [2] = molecular target: T1, hMC4-R; experiment: Membrane binding assay, fluorescence labeled NDP-alpha-MSH competition (fluorescence polarization); conditions: HEK293 cell membrane preparations
# Experimental: A membrane binding assay is used to identify competitive inhibitors of fluorescence labeled NDP-alpha-MSH binding to HEK293 cell membrane preparations expressing human melanocortin receptors.
# The test compound or unlabeled NDP-alpha-MSH is dispensed at varying concentrations to a 384 well microtiter plate. Fluorescence labeled NDP-alpha-MSH is dispensed at a single concentration, followed by addition of membrane preparations. The plate is incubated for 5 h at room temperature.
# The degree of fluorescence polarization is determined with a fluorescence polarization microplate reader.
# male Wistar rats = experiment: Spontaneous feeding paradigm (food intake); format: in vivo, rat; conditions: 10 mg/kg p.o.; for increase in cumulative food intake: compared to vehicle control
# Experimental: Food intake in rats is measured after i.p. or p.o. administration of the test compound (see e.g. Chen, A. S. et al. Transgenic Res April 2000; 9(2):145-54).
# 3-4 Hours following the onset of the light-phase, individually housed, male Wistar rats (200-300 g) receive an ip injection or po application of test compound or vehicle in an administration volume of 2 ml/kg. Following the administration of substances (1-30 mg/kg), a pre-weighed amount of normal laboratory chow is placed into the food hopper. Food remaining is measured by hand at 1-2 hour intervals for up to 8 hours. Differences in food intake between test-compound and vehicle-treated rats are evaluated.
# [3] = 2 hours following administration
# [4] = 4 hours following administration
Compound,EC50 (hMC4-R [1]) [µM],% activation functional assay (hMC4-R [1]),IC50 (hMC4-R [2]) [µM],activity in the spontaneous feeding paradigm (increase in food intake) (male Wistar rats),increase in cumulative food intake (male Wistar rats; [3]) [%],increase in cumulative food intake (male Wistar rats; [4]) [%],increase in cumulative food intake (male Wistar rats; 6 hours following administration) [%]
CC(C)(C)NC(=O)C1(C2CCCCC2)CCN(C[C@@H](Cc2ccc(Cl)cc2)NC(=O)c2cc(=O)c3ccccc3o2)CC1 [Example 29],,no activation,2.6,,,,
CC(C)(C)NC(=O)C1(C2CCCCC2)CCN(CC[C@@H](Cc2ccc(Cl)cc2)NC(=O)c2cc(=O)c3ccccc3o2)CC1 [Example 30],,no activation,2.1,,,,
CC(C)(C)NC(=O)C1(C2CCCCC2)CCN(CC[C@H](Cc2ccc(Cl)cc2)NC(=O)[C@H]2Cc3ccccc3CN2)CC1.Cl [Example 6],,no activation,1,,,,
CC(C)(C)NC(=O)C1(C2CCCCC2)CCN(CC[C@@H](Cc2ccc(Cl)cc2)NC(=O)[C@H]2Cc3ccccc3CN2)CC1.Cl [Example 5],8,52%,2.5,,,,
CC(C)(C)NC(=O)C1(C2CCCCC2)CCN(C[C@H](Cc2ccc(Cl)cc2)NC(=O)c2cc(=O)c3ccccc3o2)CC1 [Example 28],,no activation,2.3,,,,

# Stronger by IC50 (hMC4-R [2]), values ahead:
EC50 (hMC4-R [1]) [µM],% activation functional assay (hMC4-R [1]),IC50 (hMC4-R [2]) [µM],Compound,activity in the spontaneous feeding paradigm (increase in food intake) (male Wistar rats),increase in cumulative food intake (male Wistar rats; [3]) [%],increase in cumulative food intake (male Wistar rats; [4]) [%],increase in cumulative food intake (male Wistar rats; 6 hours following administration) [%]
3.1,80%,0.72,CC(C)(C)NC(=O)C1(C2CCCCC2)CCN(C[C@@H](Cc2ccc(Cl)cc2)NC(=O)[C@H]2Cc3ccccc3CN2)CC1.Cl [Example 2],,,,
,no activation,0.42,CC(C)(C)NC(=O)C1(C2CCCCC2)CCN(C[C@@H](Cc2ccc(Cl)cc2)NC(=O)[C@@H]2Cc3ccccc3CN2)CC1.Cl [Example 3],,,,
,no activation,0.061,CC(C)(C)NC(=O)C1(C2CCCCC2)CCN(CC[C@H](Cc2ccc(Cl)cc2)NC(=O)c2cc(=O)c3ccccc3o2)CC1 [Example 31],active,1100,380,
,no activation,0.7,CC(C)(C)NC(=O)C1(C2CCCCC2)CCN(C[C@H](Cc2ccc(Cl)cc2)NC(=O)[C@H]2Cc3ccccc3CN2)CC1.Cl [Example 1],active,2700,700,175
